Measured values published in patent US20160158200A1, “Combinations of Hepatitis C Virus Inhibitors” (priority 2013, published 2016).

Tested on: HCV genotype-1a variant with glutamine 30 changed to glutamate in the NS5A protein
Format: cell-based
Details: test compound titrated with BMS-790052 fixed at 200 nM; genotype 1a Q30E replicon
Procedure, shortened: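 Synergy was assessed by combining several fixed amounts of an NS5A-targeting compound with a titration of the second compound of interest.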

CC(C)(C)[C@H](NC(=O)C(C)(C)C1(O)CCC(F)(F)CC1)c1nc2ccc(C#Cc3ccc4nc([C@@H](NC(=O)C(C)(C)C5(O)CCC(F)(F)CC5)C(C)(C)C)[nH]c4c3)cc2[nH]1.O=C(O)C(F)(F)F [Compound B41A]
Fold-Synergistic 1a (Q30E): >100 fold

CC(C)(C)[C@H](NC(=O)C1(C2(O)CCC(F)(F)CC2)CC1)c1nc2ccc(C#Cc3ccc4nc([C@@H](NC(=O)C5(C6(O)CCC(F)(F)CC6)CC5)C(C)(C)C)[nH]c4c3)cc2[nH]1.O=C(O)C(F)(F)F [Compound B41B]
Fold-Synergistic 1a (Q30E): >100 fold

CC(C)[C@H](NC(=O)C1CCC(F)(F)CC1)c1nc2ccc(C#Cc3ccc4nc([C@@H](NC(=O)C5CCC(F)(F)CC5)C(C)C)[nH]c4c3)cc2[nH]1.O=C(O)C(F)(F)F [Compound B42]
Fold-Synergistic 1a (Q30E): >100 fold

CC(C)[C@H](NC(=O)C(C)(C)C)c1nc2ccc(C#Cc3ccc4nc([C@@H](NC(=O)C(C)(C)C)C(C)C)[nH]c4c3)cc2[nH]1.O=C(O)C(F)(F)F [Compound B43]
Fold-Synergistic 1a (Q30E): >100 fold

CC(C)(C)[C@H](NC(=O)C1CCC(F)(F)CC1)c1ncc(-c2ccc(C#Cc3ccc4nc([C@@H](NC(=O)C5CCC(F)(F)CC5)C(C)(C)C)[nH]c4c3)cc2)[nH]1 [Compound B45]
Fold-Synergistic 1a (Q30E): >100 fold

CC(C)(C)[C@H](NC(=O)C1CCC(F)(F)CC1)c1nc2ccc(C#CC#Cc3ccc4nc([C@@H](NC(=O)C5CCC(F)(F)CC5)C(C)(C)C)[nH]c4c3)cc2[nH]1 [Compound B46]
Fold-Synergistic 1a (Q30E): >100 fold

CC(C)(C)[C@H](NC(=O)C(C)(C)C1(O)CCC(F)(F)CC1)c1ncc(-c2ccc(C#Cc3ccc4nc([C@@H](NC(=O)C(C)(C)C5(O)CCC(F)(F)CC5)C(C)(C)C)[nH]c4c3)cc2)[nH]1 [Compound B48A]
Fold-Synergistic 1a (Q30E): >100 fold

CC(C)(C)[C@H](NC(=O)C1(C2(O)CCC(F)(F)CC2)CC1)c1ncc(-c2ccc(C#Cc3ccc4nc([C@@H](NC(=O)C5(C6(O)CCC(F)(F)CC6)CC5)C(C)(C)C)[nH]c4c3)cc2)[nH]1 [Compound B48B]
Fold-Synergistic 1a (Q30E): >100 fold

CC(C)[C@H](NC(=O)C1CCC(F)(F)CC1)c1ncc(-c2ccc(C#Cc3ccc4nc([C@@H](NC(=O)C5CCC(F)(F)CC5)C(C)C)[nH]c4c3)cc2)[nH]1 [Compound B51]
Fold-Synergistic 1a (Q30E): >100 fold

CC(C)[C@H](NC(=O)C1CCC(F)(F)CC1)c1nc2ccc(C#CC#Cc3ccc4nc([C@@H](NC(=O)C5CCC(F)(F)CC5)C(C)C)[nH]c4c3)cc2[nH]1 [Compound B52]
Fold-Synergistic 1a (Q30E): >100 fold

CC(C)(C)[C@H](NC(=O)C1CCC(F)(F)CC1)c1ncc(-c2ccc3cc(-c4ccc5nc([C@@H](NC(=O)C6CCC(F)(F)CC6)C(C)(C)C)[nH]c5c4)ccc3c2)[nH]1 [Compound B53]
Fold-Synergistic 1a (Q30E): >100 fold

CC(C)(C)C(=O)N[C@H](c1ncc(-c2ccc3cc(-c4ccc5nc([C@@H](NC(=O)C(C)(C)C)C(C)(C)C)[nH]c5c4)ccc3c2)[nH]1)C(C)(C)C [Compound B54]
Fold-Synergistic 1a (Q30E): >100 fold

CC(C)[C@H](NC(=O)C1CCC(F)(F)CC1)c1ncc(-c2ccc3cc(-c4ccc5nc([C@@H](NC(=O)C6CCC(F)(F)CC6)C(C)C)[nH]c5c4)ccc3c2)[nH]1 [Compound B55]
Fold-Synergistic 1a (Q30E): >100 fold

CC(C)(C)[C@H](NC(=O)C1CCC(F)(F)CC1)c1ncc(-c2ccc(-c3ccc(-c4ccc5nc([C@@H](NC(=O)C6CCC(F)(F)CC6)C(C)(C)C)[nH]c5c4)cc3)cc2)[nH]1 [Compound B56]
Fold-Synergistic 1a (Q30E): >100 fold

CC(C)(C)[C@H](NC(=O)C1CCC(F)(F)CC1)c1ncc(-c2ccc(-c3ccc(-c4cnc([C@@H](NC(=O)C5CCC(F)(F)CC5)C(C)(C)C)[nH]4)s3)cc2)[nH]1 [Compound B57]
Fold-Synergistic 1a (Q30E): >100 fold

CC(C)(C)[C@H](NC(=O)C(C)(C)C1(O)CCC(F)(F)CC1)c1ncc(-c2ccc(-c3ccc4nc([C@@H](NC(=O)C(C)(C)C5(O)CCC(F)(F)CC5)C(C)(C)C)[nH]c4c3)cc2)[nH]1 [Compound B58A]
Fold-Synergistic 1a (Q30E): >100 fold

CC(C)(C)[C@H](NC(=O)C1(C2(O)CCC(F)(F)CC2)CC1)c1ncc(-c2ccc(-c3ccc4nc([C@@H](NC(=O)C5(C6(O)CCC(F)(F)CC6)CC5)C(C)(C)C)[nH]c4c3)cc2)[nH]1 [Compound B58B]
Fold-Synergistic 1a (Q30E): >100 fold

CC(C)(C)[C@H](NC(=O)C1CCC(F)(F)CC1)c1ncc(-c2ccc(-c3ccc4nc([C@@H](NC(=O)C5CCC(F)(F)CC5)C(C)(C)C)[nH]c4c3)cc2)[nH]1 [Compound B58]
Fold-Synergistic 1a (Q30E): >100 fold

CC(C)(C)[C@H](NC(=O)C1CCC(F)(F)CC1)c1ncc(-c2cc3cc4oc(-c5cnc([C@@H](NC(=O)C6CCC(F)(F)CC6)C(C)(C)C)[nH]5)cc4cc3o2)[nH]1 [Compound B59]
Fold-Synergistic 1a (Q30E): >100 fold

CC(C)(C)[C@H](NC(=O)C1CCC(F)(F)CC1)c1ncc(C#Cc2ccc(C#Cc3cnc([C@@H](NC(=O)C4CCC(F)(F)CC4)C(C)(C)C)[nH]3)cc2)[nH]1 [Compound B60]
Fold-Synergistic 1a (Q30E): >100 fold

CC(C)(C)[C@H](NC(=O)C1CCC(F)(F)CC1)c1ncc(-c2ccc(-c3cc4ccc(-c5cnc([C@@H](NC(=O)C6CCC(F)(F)CC6)C(C)(C)C)[nH]5)cc4o3)cc2)[nH]1 [Compound B61]
Fold-Synergistic 1a (Q30E): >100 fold

CC(C)(C)C(=O)N[C@H](c1ncc(-c2ccc(-c3cc4ccc(-c5cnc([C@@H](NC(=O)C(C)(C)C)C(C)(C)C)[nH]5)cc4o3)cc2)[nH]1)C(C)(C)C.O=C(O)C(F)(F)F [Compound B62]
Fold-Synergistic 1a (Q30E): >10 fold

COC(=O)N(C)C1(C(=O)N[C@H](c2ncc(-c3ccc(-c4cc5ccc(-c6cnc([C@@H](NC(=O)C7(N(C)C(=O)OC)CC7)C(C)(C)C)[nH]6)cc5o4)cc3)[nH]2)C(C)(C)C)CC1.O=C(O)C(F)(F)F [Compound B63]
Fold-Synergistic 1a (Q30E): >10 fold

CC(C)(C)[C@H](NC(=O)C1CCC(F)(F)CC1)c1ncc(C#Cc2ccc3cc(C#Cc4cnc([C@@H](NC(=O)C5CCC(F)(F)CC5)C(C)(C)C)[nH]4)ccc3c2)[nH]1 [Compound B65]
Fold-Synergistic 1a (Q30E): >100 fold

CC(C)(C)[C@H](NC(=O)C1CCC(F)(F)CC1)c1ncc(C#CC#Cc2cnc([C@@H](NC(=O)C3CCC(F)(F)CC3)C(C)(C)C)[nH]2)[nH]1 [Compound B66]
Fold-Synergistic 1a (Q30E): >10 fold

CC1([C@H](NC(=O)C2CCC(F)(F)CC2)c2nc3ccc(C#Cc4ccc5nc([C@@H](NC(=O)C6CCC(F)(F)CC6)C6(C)CC6)[nH]c5c4)cc3[nH]2)CC1 [Compound B67]
Fold-Synergistic 1a (Q30E): >100 fold

CC1([C@H](NC(=O)C(C)(C)C(C)(C)O)c2nc3ccc(C#Cc4ccc5nc([C@@H](NC(=O)C(C)(C)C(C)(C)O)C6(C)CC6)[nH]c5c4)cc3[nH]2)CC1 [Compound B68]
Fold-Synergistic 1a (Q30E): >100 fold

CC(C)(C)[C@H](NC(=O)C(C)(C)C(C)(C)O)c1ncc(-c2ccc(-c3ccc(-c4cnc([C@@H](NC(=O)C(C)(C)C(C)(C)O)C(C)(C)C)[nH]4)cc3)cc2)[nH]1 [Compound B69]
Fold-Synergistic 1a (Q30E): >100 fold

CC(C)(C(=O)N[C@H](c1ncc(-c2ccc(-c3ccc(-c4cnc([C@@H](NC(=O)C(C)(C)C5CCCC5)C(C)(C)C)[nH]4)cc3)cc2)[nH]1)C(C)(C)C)C1CCCC1 [Compound B82]
Fold-Synergistic 1a (Q30E): >100 fold

CN(C)C(=N[C@H](c1ncc(-c2ccc(-c3ccc(-c4cnc([C@@H](NC(=O)C(C)(C)C5CCCC5)C(C)(C)C)[nH]4)cc3)cc2)[nH]1)C(C)(C)C)N(C)C [Compound B83]
Fold-Synergistic 1a (Q30E): >100 fold

CC(C)(C)[C@H](NC(=O)C1(C2(O)CCNCC2)CCC1)c1ncc(-c2ccc(-c3ccc(-c4cnc([C@@H](NC(=O)C5(C6(O)CCOCC6)CCC5)C(C)(C)C)[nH]4)cc3)cc2)[nH]1 [Compound B84]
Fold-Synergistic 1a (Q30E): >100 fold

CN(C)C(=N[C@H](c1ncc(-c2ccc(-c3ccc(-c4cnc([C@@H](NC(=O)C5(C6(O)CCNCC6)CCC5)C(C)(C)C)[nH]4)cc3)cc2)[nH]1)C(C)(C)C)N(C)C [Compound B85]
Fold-Synergistic 1a (Q30E): >10 fold

CC(C)(C(=O)N[C@H](c1ncc(-c2ccc(-c3ccc(-c4cnc([C@@H](NC(=O)C(C)(C)C5=CCCCC5)C(C)(C)C)[nH]4)cc3)cc2)[nH]1)C(C)(C)C)C1=CCCCC1 [Compound B86]
Fold-Synergistic 1a (Q30E): >100 fold

CN(C)C(=N[C@H](c1ncc(-c2ccc(-c3ccc(-c4cnc([C@@H](NC(=O)C(C)(C)C5=CCCCC5)C(C)(C)C)[nH]4)cc3)cc2)[nH]1)C(C)(C)C)N(C)C [Compound B87]
Fold-Synergistic 1a (Q30E): >100 fold

CC(C)C(C)(C)C(=O)N[C@H](c1ncc(-c2ccc(-c3ccc(-c4cnc([C@@H](NC(=O)C(C)(C)C(C)C)C(C)(C)C)[nH]4)cc3)cc2)[nH]1)C(C)(C)C [Compound B88]
Fold-Synergistic 1a (Q30E): >100 fold

CC(C)(C(=O)N[C@H](c1ncc(-c2ccc(-c3ccc(-c4cnc([C@@H](NC(=O)C(C)(C)C5CCOCC5)C(C)(C)C)[nH]4)cc3)cc2)[nH]1)C(C)(C)C)C1CCOCC1 [Compound B98]
Fold-Synergistic 1a (Q30E): >100 fold

CC1([C@H](NC(=O)C(C)(C)C(C)(C)O)c2ncc(-c3ccc(-c4ccc(-c5cnc([C@@H](NC(=O)C(C)(C)C(C)(C)O)C6(C)CC6)[nH]5)cc4)cc3)[nH]2)CC1 [Compound B148]
Fold-Synergistic 1a (Q30E): >100 fold

CC1([C@H](NC(=O)C2(C(C)(C)O)CC2)c2ncc(-c3ccc(-c4ccc(-c5cnc([C@@H](NC(=O)C6(C(C)(C)O)CC6)C6(C)CC6)[nH]5)cc4)cc3)[nH]2)CC1 [Compound B149]
Fold-Synergistic 1a (Q30E): >100 fold

CC(O)(CC1CC1)C(=O)N[C@H](c1nc(-c2ccc(-c3ccc(-c4cnc([C@@H](NC(=O)C(C)(O)CC5CC5)C(C)(C)C)[nH]4)cc3)cc2)c[nH]1)C(C)(C)C (some centres unmarked) [Compound B-162]
Fold-Synergistic 1a (Q30E): >100 fold

C=CC(C)(C)C(=O)N[C@H](c1nc(-c2ccc(-c3ccc(-c4cnc([C@@H](NC(=O)C(C)(C)C=C)C(C)(C)C)[nH]4)cc3)cc2)c[nH]1)C(C)(C)C.O=C(O)C(F)(F)F [Compound B-166]
Fold-Synergistic 1a (Q30E): >100 fold

CC(C)(C(=O)N[C@H](c1nc(-c2ccc(-c3ccc(-c4cnc([C@@H](NC(=O)C(C)(C)C5CC5)C(C)(C)C)[nH]4)cc3)cc2)c[nH]1)C(C)(C)C)C1CC1 [Compound B-167]
Fold-Synergistic 1a (Q30E): >100 fold
